Source: publication PMC7216583 (Parasites & Vectors, 2020)
Structures can show the parent of a compound that is named as a salt. Where two headings read alike, the source gives them in different places.

Experiments:
[1] = tested on: EGFR; set-up: method as in library vendor description; conditions: ref library vendor description; cited from earlier work
[2] = tested on: Toxoplasma gondii RH-2F tachyzoites; experiment: microbe, parasite or virus in culture; conditions: 72 h
[3] = tested on: c-Met; set-up: method as in S-inhibitor catalog; conditions: vendor brief description; ref S-inhibitor catalog; cited from earlier work
[4] = tested on: Smoothened (Smo); set-up: method as in S-inhibitor catalog; conditions: vendor brief description; ref S-inhibitor catalog; cited from earlier work
[5] = tested on: VEGFR1; set-up: method as in library vendor description; conditions: ref library vendor description; cited from earlier work
[6] = tested on: PDGFR; conditions: read-out: IC50 PDGFR; ref library vendor description; cited from earlier work
[7] = tested on: CDK1; set-up: method as in S-inhibitor catalog; conditions: vendor brief description; ref S-inhibitor catalog; cited from earlier work
[8] = tested on: CDK9; set-up: method as in S-inhibitor catalog; conditions: vendor brief description; ref S-inhibitor catalog; cited from earlier work
[9] = tested on: CYP17; set-up: method as in S-inhibitor catalog; conditions: vendor brief description; ref S-inhibitor catalog; cited from earlier work
[10] = tested on: JAK1; set-up: method as in vendor brief description; conditions: ref vendor brief description; cited from earlier work
[11] = target: N-methyl-D-aspartate (NMDA) receptor; set-up: method as in vendor brief description; conditions: ref vendor brief description; cited from earlier work
[12] = target: histamine 1 (H1) receptor; set-up: method as in vendor brief description; conditions: ref vendor brief description; cited from earlier work
[13] = tested on: Toxoplasma gondii RH-2F tachyzoites; conditions: preliminary screen of compound library; mean
[14] = tested on: Akt1; set-up: method as in vendor brief description; conditions: ref vendor brief description; cited from earlier work
[15] = target: endothelin receptor-A; set-up: method as in vendor brief description; conditions: ref vendor brief description; cited from earlier work
[16] = tested on: c-Kit; set-up: method as in library vendor description; conditions: ref library vendor description; cited from earlier work
[17] = tested on: CDK; set-up: method as in S-inhibitor catalog; conditions: vendor brief description; ref S-inhibitor catalog; cited from earlier work
[18] = tested on: TRPA1 channel; set-up: method as in vendor brief description; conditions: ref vendor brief description, cited from earlier work
[19] = tested on: ATR; set-up: method as in vendor brief description; conditions: ref vendor brief description; cited from earlier work
[20] = tested on: FGFR1; conditions: read-out: IC50, FGFR1; vendor brief description; ref S-inhibitor catalog; cited from earlier work
[21] = in vitro; conditions: human, Host viability (%) mean
[22] = tested on: Aurora A; set-up: method as in S-inhibitor; conditions: ref S-inhibitor; cited from earlier work
[23] = tested on: Abl; set-up: method as in S-inhibitor; conditions: ref S-inhibitor; read-out: IC50, Abl; cited from earlier work
[24] = tested on: Kir2.1; set-up: method as in vendor brief description; conditions: ref vendor brief description, cited from earlier work
[25] = target: H3-receptor; set-up: method as in vendor brief description; conditions: ref vendor brief description, cited from earlier work
[26] = tested on: 5-HT2B; set-up: method as in S-inhibitor catalog; conditions: vendor brief description; ref S-inhibitor catalog; cited from earlier work
[27] = target: epidermal growth factor receptor (EGFR); set-up: method as in vendor brief description; conditions: ref vendor brief description; read-out: IC50 EGFR; cited from earlier work
[28] = tested on: c-Kit; set-up: method as in S-inhibitor catalog; conditions: vendor brief description; ref S-inhibitor catalog; cited from earlier work
[29] = tested on: VEGFR2; set-up: method as in S-inhibitor; conditions: ref S-inhibitor; cited from earlier work
[30] = tested on: c-Met; set-up: method as in S-inhibitor; conditions: ref S-inhibitor; cited from earlier work
[31] = tested on: CXCR4; set-up: method as in vendor brief description; conditions: ref vendor brief description; cited from earlier work
[32] = tested on: HDAC; set-up: method as in S-inhibitor catalog; conditions: vendor brief description; ref S-inhibitor catalog; cited from earlier work
[33] = target: mTOR; set-up: method as in vendor brief description; conditions: ref vendor brief description; cited from earlier work
[34] = tested on: hTRPV1; set-up: method as in S-inhibitor catalog; conditions: in HEK293 cells; vendor brief description; ref S-inhibitor catalog; cited from earlier work
[35] = target: Bcl-2; set-up: method as in library vendor description; conditions: ref library vendor description; cited from earlier work
[36] = tested on: HSP90; set-up: method as in S-inhibitor catalog; conditions: vendor brief description; ref S-inhibitor catalog; cited from earlier work
[37] = tested on: VEGFR2; set-up: method as in S-inhibitor catalog; conditions: vendor brief description; ref S-inhibitor catalog; cited from earlier work
[38] = tested on: ErbB1; set-up: method as in S-inhibitor catalog; conditions: vendor brief description; ref S-inhibitor catalog; cited from earlier work
[39] = tested on: ErbB2; set-up: method as in S-inhibitor catalog; conditions: vendor brief description; ref S-inhibitor catalog; cited from earlier work
[40] = target: 5-HT3A; set-up: method as in vendor brief description; conditions: ref vendor brief description; cited from earlier work
[41] = read-out: Parasite inhibition (%) mean, preliminary screen, mean
[42] = read-out: Parasite inhibition (%) mean, preliminary screen of compound library, mean

COc1cc2ncnc(Nc3cccc(Br)c3)c2cc1OC [PD153035 HCl]
IC50 [1]: […] | inhibition of growth at 5 µM [2, 41]: -9.7%

Cn1cc(-c2ccc3ncc(Cc4ccc5ncccc5c4)n3n2)cn1 [NVP-BVU972]
IC50 [3]: 14 nM | inhibition of growth at 5 µM [2, 42]: 38.8%

Cc1cnc(-c2cc(N3CCN(C(=O)CCS(C)(=O)=O)CC3)ncc2Cl)c(C)c1 [PF-5274857]
IC50 [4]: 5.8 nM | Ki [4]: 4.6 nM | inhibition of growth at 5 µM [2, 42]: -0.8%

Cc1ccc(Nc2nccc(N(C)c3ccc4c(C)n(C)nc4c3)n2)cc1S(N)(=O)=O [Pazopanib HCl]
IC50 [5]: 10 nM | IC50 [6]: 84 nM | inhibition of growth at 5 µM [2, 41]: -2.6%

Cc1ncc(-c2ccnc(Nc3ccc(S(C)(=O)=O)cc3)n2)n1C(C)C [AZD5438]
IC50 [7]: 16 nM | IC50 [8]: 20 nM | inhibition of growth at 5 µM [2, 42]: 6.8%

C[C@]12CC[C@H](O)CC1=CCC1C2CC[C@]2(C)C(n3cnc4ccccc43)=CCC12 (some centres unmarked) [Galeterone (TOK-001)]
IC50 [9]: 300 nM | inhibition of growth at 5 µM [2, 42]: 0.4%

N#CC[C@@H](C1CCCC1)n1cc(-c2ncnc3[nH]ccc23)cn1 [S-Ruxolitinib]
IC50 [10]: […] | inhibition of growth at 5 µM [2, 42]: 10.7%

C[C@]12N[C@H](Cc3ccccc31)c1ccccc12 [Dizocilpine (MK 801)]
Ki [11]: 30.5 nM | inhibition of growth at 5 µM [2, 42]: 0.4%

O=C(O)CCCN1CCC(O[C@@H](c2ccc(Cl)cc2)c2ccccn2)CC1.O=S(=O)(O)c1ccccc1 [Bepotastine Besilate]
pIC50 histamine 1 (H1) receptor [12]: Bepotastine is a non-sedating, selective antagonist of histamine 1 (H1) receptor with pIC50 of 5.7. | inhibition of growth at 5 µM [2, 42]: 50.1%

AZD5363
Parasite inhibition (%) mean [13]: 33.4% | IC50 [14]: 3 nM

COc1ccccc1Oc1c(NS(=O)(=O)c2ccc(C(C)(C)C)cc2)nc(-c2ncccn2)nc1OCCO [Bosentan Hydrate]
Ki [15]: […] | inhibition of growth at 5 µM [2, 42]: 5.3%

CC1(C)CNc2cc(NC(=O)c3cccnc3NCc3ccncc3)ccc21 [Motesanib Diphosphate (AMG-706)]
IC50 [16]: 8 nM | IC50 [6]: 84 nM | inhibition of growth at 5 µM [2, 41]: -36.6%

COc1ccc(F)c(F)c1C(=O)c1cnc(NC2CCN(S(C)(=O)=O)CC2)nc1N [R547]
IC50 [17]: 80 nM | Ki [17]: 1 to 3 nM | inhibition of growth at 5 µM [2, 42]: 11.7%

CC(C)c1ccc(NC(=O)Cn2cnc3c2c(=O)n(C)c(=O)n3C)cc1 [HC-030031]
IC50 ([18]; AITC-evoked, read-out: IC50 AITC-evoked calcium influx): 6200 nM | IC50 ([18]; formalin-evoked, read-out: IC50 formalin-evoked calcium influx): 5300 nM | inhibition of growth at 5 µM [2, 42]: 1.6%

CS(=O)(=O)c1ccc(-c2cnc(N)c(C(=O)Nc3ccccc3)n2)cc1 [VE-821]
IC50 [19]: 26 nM | Ki [19]: 13 nM | inhibition of growth at 5 µM [2, 42]: -7.9%

AZD4547
IC50 [20]: 0.2 nM

O=C(c1ccc(/C=C/c2n[nH]c3ccccc23)cc1)N1CCNCC1 [KW 2449]
viability at 72 h [21]: 55.6% | IC50 [22]: 48 nM | IC50 [23]: 14 nM | inhibition of growth at 5 µM [2, 41]: 70.2%

COc1ccc(CNCc2cccc3ccccc23)cc1 [ML133 HCl]
IC50 ([24]; pH 7.4): 1800 nM | IC50 ([24]; pH 8.5): 290 nM | inhibition of growth at 5 µM [2, 42]: 0.7%

O=C(c1ccc(OCCCc2cnc[nH]2)cc1)C1CC1 [Ciproxifan]
IC50 ([25]; read-out: IC50 H3-receptor): 9.2 nM | inhibition of growth at 5 µM [2, 42]: 0.5%

CC(C)c1cc(-c2ccc(F)c3ccccc23)nc(N)n1 [RS-127445]
pIC50, 5-HT2B [26]: 10.4 | pKi, 5-HT2B [26]: 9.5 | inhibition of growth at 5 µM [2, 42]: -0.7%

C#Cc1cccc(Nc2ncnc3cc4c(cc23)OCCOCCOCCO4)c1 [Icotinib]
IC50 [27]: 5 nM | inhibition of growth at 5 µM [2, 42]: 13.6%

CN1CCN(c2ccc3nc(-c4c(N)c5c(F)cccc5[nH]c4=O)[nH]c3c2)CC1
IC50 [28]: 2 nM

Nc1nccc(Oc2ccc(NC(=O)c3c[nH]cc(-c4ccc(F)cc4)c3=O)cc2F)c1Cl [BMS 794833]
viability at 72 h [21]: 70.6% | IC50 [29]: 15 nM | IC50 [30]: 1.7 nM | inhibition of growth at 5 µM [2, 41]: 88.4%

c1ccc(NCc2ccc(CNc3ccccn3)cc2)nc1 [WZ 811]
EC50 [31]: 0.3 nM | inhibition of growth at 5 µM [2, 42]: -5.7%

CN(C)c1ccc(C(=O)NCCCCCCC(=O)NO)cc1 [M344]
IC50 [32]: 100 nM | inhibition of growth at 5 µM [2, 42]: 44.6%

CCNC(=O)Nc1ccc(-c2nc3c(c(N4CCOC[C@@H]4C)n2)CCN(C2COC2)C3)cc1 [GDC-0349]
Ki [33]: 3.8 nM | inhibition of growth at 5 µM [2, 42]: -13.8%

CNCCc1ccccn1 [Betahistine 2HCl]
IC50 ([25]; read-out: IC50 histamine H3 receptors): 1900 nM | inhibition of growth at 5 µM [2, 42]: 3.2%

CC(C)n1nc(-c2ccc3oc(N)nc3c2)c2c(N)ncnc21 [INK 128 (MLN0128)]
IC50 [33]: 1 nM | inhibition of growth at 5 µM [2, 42]: 27.8%

CC(=O)O[C@H]1CC[C@@]2(C)C(=CC[C@H]3[C@H]2CC[C@]2(C)C(c4cccnc4)=CC[C@@H]32)C1 [Abiraterone Acetate (CB7630)]
IC50 [9]: 72 nM | inhibition of growth at 5 µM [2, 42]: 0.7%

O=C(Nc1ccccc1Br)N[C@@H]1CCN(c2ccc(C(F)(F)F)cn2)C1 [SB705498]
pIC50, hTRPV1 [34]: 7.1 | pKi, hTRPV1 [34]: 7.6 | inhibition of growth at 5 µM [2, 42]: 0.6%

COC1=CC(c2cc3ccccc3[nH]2)=N/C1=C\c1[nH]c(C)cc1C [Obatoclax mesylate (GX15-070)]
Ki [35]: 220 nM | inhibition of growth at 5 µM [2, 41]: 52.7%

CCc1c(O)cc(O)c(C(=O)c2ccc(OCCN3CCOCC3)c(OC)c2)c1CC(=O)N(CCOC)CCOC [KW-2478]
IC50 [36]: 3.8 nM | inhibition of growth at 5 µM [2, 42]: 7.8%

CC(C)[C@H](C(=O)Nc1ccc(C(=O)NO)cc1)c1ccccc1 [AR-42 (HDAC-42)]
IC50 [32]: 30 nM | inhibition of growth at 5 µM [2, 42]: 61%

N#CC1(c2ccc(NC(=O)c3cccnc3NCc3ccncc3)cc2)CCCC1 [Apatinib (YN968D1)]
viability at 72 h [21]: 63.8% | IC50 [37]: 1 nM | inhibition of growth at 5 µM [2, 42]: 77.6%

C[C@@H]1COC(Nc2ccc3ncnc(Nc4ccc(OCc5nccs5)c(Cl)c4)c3c2)=N1 [ARRY334543]
IC50 [38]: 7 nM | IC50 [39]: 2 nM | inhibition of growth at 5 µM [2, 42]: 12.4%

CN1CCN(c2nc3ccccc3nc2Cl)CC1 [VUF 10166]
Ki [40]: 0.04 nM | inhibition of growth at 5 µM [2, 42]: 0.4%
